Reference: patent US7718647B2, “Substituted azepine derivatives as serotonin receptor modulators” (Athersys, Inc., priority 2004, dated 2010)

Molecular target: T1, human 5HT2c receptor (Homo sapiens, UniProt P28335, I156V/I160V, form not given)
T1 sequence (P28335 1-458 I156V/N158S/I160V): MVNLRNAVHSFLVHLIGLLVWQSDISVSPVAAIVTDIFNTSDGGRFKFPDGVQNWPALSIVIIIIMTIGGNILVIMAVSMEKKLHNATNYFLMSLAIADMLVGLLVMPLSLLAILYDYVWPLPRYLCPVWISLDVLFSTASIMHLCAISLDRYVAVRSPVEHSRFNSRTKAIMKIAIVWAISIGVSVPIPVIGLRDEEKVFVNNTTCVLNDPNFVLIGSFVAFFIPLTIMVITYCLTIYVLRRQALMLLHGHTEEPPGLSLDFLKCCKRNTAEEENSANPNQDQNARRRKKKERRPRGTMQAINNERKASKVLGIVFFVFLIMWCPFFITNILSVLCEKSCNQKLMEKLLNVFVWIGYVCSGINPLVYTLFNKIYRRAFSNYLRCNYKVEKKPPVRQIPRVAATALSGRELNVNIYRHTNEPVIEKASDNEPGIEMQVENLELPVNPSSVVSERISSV
Experiment: Calcium mobilization (FLIPR) 5HT2c receptor agonist assay in HEK 293 EBNA cells
Assay type: cell-based
Conditions: agonist-stimulated calcium release, HEK 293 EBNA cells expressing human 5HT2c receptor, read-out: 5-HT2c EC50 (hVSV)

Row | SMILES | EC50 [nM]
1 | COc1c(C(C)C)sc2c1CCNCC2 [Example 22, 2-Isopropyl-3-methoxy-5,6,7,8-tetrahydro-4H-thieno[2,3-d]azepine] | < 10
2 | Clc1csc2c1CCNCC2 [Example 48, 3-Chloro-5,6,7,8-tetrahydro-4H-thieno[2,3-d]azepine] | < 10000
3 | FC(F)(F)c1sc2c(c1Cl)CCNCC2 [Example 41, 3-Chloro-2-trifluoromethyl-5,6,7,8-tetrahydro-4H-thieno[2,3-d]azepine] | < 100
4 | Cc1c(Br)sc2c1C(C)CNCC2 (single isomer, unassigned) [36, Enantiomer 2] | < 1000
5 | CC(C)(C)c1sc2c3c1CCC3CNCC2 (single isomer, unassigned) [39, Enantiomer 1] | < 100
6 | FC(F)(F)Oc1ccc(-c2cc3c(s2)CCNCC3)cc1 [Example 6, 2-(4-Trifluoromethoxy-phenyl)-5,6,7,8-tetrahydro-4H-thieno[2,3-d]azepine] | > 10000
7 | CC(C)(C)c1cc2c(s1)CCNCC2 [Example 45, 2-tert-Butyl-5,6,7,8-tetrahydro-4H-thieno[2,3-d]azepine] | < 100
8 | FC(F)(F)c1cc2c(s1)CCNCC2 [Example 40, 2-Trifluoromethyl-5,6,7,8-tetrahydro-4H-thieno[2,3-d]azepine] | < 10
9 | COc1c(C)sc2c1CCNCC2 [Example 17, 3-Methoxy-2-methyl-5,6,7,8-tetrahydro-4H-thieno[2,3-d]azepine] | < 10
10 | COc1cccc(-c2cc3c(s2)CCNCC3)c1 [Example 12, 2-(3-Methoxy-phenyl)-5,6,7,8-tetrahydro-4H-thieno[2,3-d]azepine] | < 10000
11 | C=C(C)c1sc2c(c1OC)CCNCC2 [Example 20, 2-Isopropenyl-3-methoxy-5,6,7,8-tetrahydro-4H-thieno[2,3-d]azepine] | < 10
12 | c1ccc(-c2cc3c(s2)CCNCC3)cc1 [Example 13, 2-Phenyl-5,6,7,8-tetrahydro-4H-thieno[2,3-d]azepine] | < 10000
13 | Brc1cc2c(o1)CCNCC2 [Example 49, 2-Bromo-5,6,7,8-tetrahydro-4H-furo[2,3-d]azepine] | < 1000
14 | Cc1c(C(C)(C)C)sc2c1CCNCC2 [Example 21, 2-tert-Butyl-3-methyl-5,6,7,8-tetrahydro-4H-thieno[2,3-d]azepine] | < 100
15 | Clc1c(Br)sc2c1CCNCC2 [Example 5, 2-Bromo-3-chloro-5,6,7,8-tetrahydro-4H-thieno[2,3-d]azepine] | < 10
16 | CC1CNCCc2cc(Cl)sc21 (racemic) [Example 31, (R,S)-2-Chloro-8-methyl-5,6,7,8-tetrahydro-4H-thieno[2,3-d]azepine] | < 100
17 | CC(C)(C)c1sc2c3c1CCC3CNCC2 (single isomer, unassigned) [39, Enantiomer 2] | < 10
18 | Fc1ccc(-c2cc3c(s2)CCNCC3)cc1 [Example 8, 2-(4-Fluoro-phenyl)-5,6,7,8-tetrahydro-4H-thieno[2,3-d]azepine] | < 10000
19 | COc1c(C(C)(C)C)sc2c1CCNCC2 [Example 44, 2-tert-Butyl-3-methoxy-5,6,7,8-tetrahydro-4H-thieno[2,3-d]azepine] | < 10
20 | O=S(=O)(c1cc2c(s1)CCNCC2)N1CCCC1 [Example 26, 2-(Pyrrolidine-1-sulfonyl)-5,6,7,8-tetrahydro-4H-thieno[2,3-d]azepine] | < 10
21 | FC(F)(F)c1sc2c(c1Br)CCNCC2 [Example 42, 3-Bromo-2-trifluoromethyl-5,6,7,8-tetrahydro-4H-thieno[2,3-d]azepine] | < 10
22 | CN(C)C(=O)c1cc2c(s1)CCNCC2 [Example 30, 5,6,7,8-Tetrahydro-4H-thieno[2,3-d]azepine-2-carboxylic acid dimethylamide] | < 1000
23 | CC1(C)CNCCc2cc(Br)sc21 [Example 34, 2-Bromo-8,8-dimethyl-5,6,7,8-tetrahydro-4H-thieno[2,3-d]azepine] | < 10000
24 | CN(C)S(=O)(=O)c1cc2c(s1)CCNCC2 [Example 27, 5,6,7,8-Tetrahydro-4H-thieno[2,3-d]azepine-2-sulfonic acid dimethylamide] | < 10
25 | Brc1cc2c(s1)CCNCC2 [Example 1, 2-Bromo-5,6,7,8-tetrahydro-4H-thieno[2,3-d]azepine] | < 10
26 | O=C(NC1CCCC1)c1cc2c(s1)CCNCC2 [Example 29, 5,6,7,8-Tetrahydro-4H-thieno[2,3-d]azepine-2-carboxylic acid cyclopentylamide] | < 10000

Row | SMILES | EC50 [nM]
27 | Fc1cccc(Cl)c1Cc1sc2c(c1Br)CCNCC2 [Example 15, 3-Bromo-2-(2-chloro-6-fluoro-benzyl)-5,6,7,8-tetrahydro-4H-thieno [2,3-d]azepine] | < 10000
28 | CCc1ccc(-c2cc3c(s2)CCNCC3)cc1 [Example 11, 2-(4-Ethyl-phenyl)-5,6,7,8-tetrahydro-4H-thieno[2,3-d]azepine] | > 10000
29 | Clc1sc2c(c1Cl)CCNCC2 [Example 4, 2,3-Dichloro-5,6,7,8-tetrahydro-4H-thieno[2,3-d]azepine] | < 10
30 | Brc1sc2c(c1Br)CCNCC2 [Example 3, 2,3-Dibromo-5,6,7,8-tetrahydro-4H-thieno[2,3-d]azepine] | < 10
31 | Cc1sc2c3c1CCC3CNCC2 (racemic) [Example 38, (R,S)-2-Methyl-4,4a,5,6,7,8-hexahydro-3H-1-thia-6-aza-cyclopenta[cd]azulene] | < 1000
32 | CC(C)(C)c1sc2c(c1Cl)CCNCC2 [Example 46, 2-tert-Butyl-3-chloro-5,6,7,8-tetrahydro-4H-thieno[2,3-d]azepine] | < 100
33 | Brc1sc2c3c1CCC3CNCC2 (single isomer, unassigned) [37, Enantiomer 2] | < 100
34 | Fc1ccc(-c2cc3c(s2)CCNCC3)cc1Cl [Example 9, 2-(3-Chloro-4-fluoro-phenyl)-5,6,7,8-tetrahydro-4H-thieno[2,3-d]azepine] | > 10000
35 | FC(F)(F)c1ccccc1-c1cc2c(s1)CCNCC2 [Example 7, 2-(2-Trifluoromethyl-phenyl)-5,6,7,8-tetrahydro-4H-thieno[2,3-d]azepine] | > 10000
36 | Cc1c(Br)sc2c1C(C)CNCC2 (single isomer, unassigned) [36, Enantiomer 1] | > 10000
37 | CC(C)(C)CC(C)(C)c1sc2c(c1Cl)CCNCC2 [Example 47, 3-Chloro-2-(1,1,3,3-tetramethyl-butyl)-5,6,7,8-tetrahydro-4H-thieno[2,3-d]azepine] | < 10000
38 | Fc1cccc(Cl)c1Cc1cc2c(s1)CCNCC2 [Example 14, 2-(2-Chloro-6-fluoro-benzyl)-5,6,7,8-tetrahydro-4H-thieno[2,3-d]azepine] | < 1000
39 | CC1CNCCc2sc(Br)c(Br)c21 (single isomer, unassigned) [32, Enantiomer 2] | < 100
40 | Clc1ccc(Cl)c(-c2cc3c(s2)CCNCC3)c1 [Example 10, 2-(2,5-Dichloro-phenyl)-5,6,7,8-tetrahydro-4H-thieno[2,3-d]azepine] | > 10000
41 | CC1CNCCc2sc(Br)c(Br)c21 (single isomer, unassigned) [32, Enantiomer 1] | < 10000
42 | COc1c(Cl)sc2c1CCNCC2 [Example 19, 2-Chloro-3-methoxy-5,6,7,8-tetrahydro-4H-thieno[2,3-d]azepine] | < 1000
43 | COc1c(Br)sc2c1CCNCC2 [Example 18, 2-Bromo-3-methoxy-5,6,7,8-tetrahydro-4H-thieno[2,3-d]azepine] | < 10
44 | Cc1c(Br)sc2c1CCNCC2 [Example 16, 2-Bromo-3-methyl-5,6,7,8-tetrahydro-4H-thieno[2,3-d]azepine] | < 10
45 | Brc1cc2c(s1)C1(CC1)CNCC2 [Example 25, 2-Bromo-8-spirocyclopropyl-5,6,7,8-tetrahydro-4H-thieno[2,3-d]azepine] | < 1000
46 | Cc1c(S(=O)(=O)N(C)C)sc2c1CCNCC2 [Example 28, 3-Methyl-5,6,7,8-tetrahydro-4H-thieno[2,3-d]azepine-2-sulfonic acid dimethylamide] | < 10
47 | Brc1sc2c3c1CCC3CNCC2 (single isomer, unassigned) [37, Enantiomer 1] | < 1000
48 | Clc1cc2c(s1)CCNCC2 [Example 2, 2-Chloro-5,6,7,8-tetrahydro-4H-thieno[2,3-d]azepine] | < 100
49 | CCC1CNCCc2sc(Br)cc21 (racemic) [Example 35, (R,S)-2-Bromo-4-ethyl-5,6,7,8-tetrahydro-4H-thieno[2,3-d]azepine] | < 100
50 | COC1CNCCc2sc(Br)cc21 (racemic) [Example 33, (R,S)-2-Bromo-4-methoxy-5,6,7,8-tetrahydro-4H-thieno[2,3-d]azepine] | < 1000
51 | Cc1csc2c1CCNCC2 [Example 43, 3-Methyl-5,6,7,8-tetrahydro-4H-thieno[2,3-d]azepine] | < 1000
